Literature values, collected in patent publication US11122828B2, “Microbial compositions comprising ellagitannin and methods of use” (MarvelBiome, Inc., priority 2018, dated 2021).
Read-outs that look alike come from different tables or passages of the source.

Columns and labels:
[1] = tested on: inflammatory markers including inducible nitric oxide synthase, cycloxygenase-2 (COX-2), prostaglandin E synthase and prostaglandin E2; conditions: rat colitis model
[2] = plasma concentration up to micromolar (μM) levels
[3] = tested on: colon cancer cells; conditions: in vitro

## O=c1oc2cc(O)ccc2c2ccc(O)cc12 [urolithin A, 3,8-dihydroxyurolithin]
[1]
  inflammatory markers in colonic mucosa: decrease inflammatory markers
[2]
  toxic effects in vivo: without any apparent toxic effects
[3]
  proliferation of colon cancer cells: inhibit proliferation

## anthocyanins
In vivo
  bioavailability: 0.3%

## isoflavones
estimated, phenols
  bioavailability: 43%
